Source: patent publication US7369696B2, “Classification of cells into subpopulations using cell classifying data” (GE Healthcare UK Limited, priority 2003, dated 2008)

System: U2OS cells (ATCC HTB-96) transfected with cyclin B1 promoter/D-box/CRS-GFP cell cycle reporter construct
Assay: Effect of cell cycle blocking agents on GFP fluorescence from cell cycle phase marker, transiently transfected cells
Assay type: cell-based
Details: U2OS cells 24 hours after transfection, exposed to blocker for a further 24 hours; confocal scanning imager with automated image analysis; control = culture media alone
Protocol: U2OS cells (ATCC HTB-96) were cultured in wells of a 96 well microtitre plate. Cells were transfected with a cell cycle reporter construct prepared according to Example 1, comprising a cyclin B1 promoter operably linked to sequences encoding the cyclin B1 D-box, the cyclin B1 CRS, and GFP in a pCORON4004 vector (Amersham Biosciences) using Fugene 6 (Roche) as the transfection agent.
Following 24 hours of culture, cells were exposed to the specific cell cycle blockers mimosine (blocks at G1/S phase boundary) or demecolcine (blocks in M phase). Control cells were exposed to culture media alone.
Cells were incubated for a further 24 hours and then analysed for nuclear GFP expression using a confocal scanning imager with automated image analysis (IN Cell Analysis System, Amersham Biosciences).

Row | Compound | nuclear GFP expression (fluorescence) compared to control cells
1 | CN[C@H]1CCc2cc(OC)c(OC)c(OC)c2-c2ccc(OC)c(=O)cc21 [demecolcine] | increased fluorescence compared to control cells
2 | NC(Cn1ccc(=O)c(O)c1)C(=O)O (centres unmarked) [mimosine] | decreased fluorescence compared to control cells
